Legend:
[1] = Half life of the molecule in primate sera; assay type: in vitro ADME; conditions: 37° C.
Description: (§1) In vitro, we and others (Lang, 1995) have shown that the activation of Vg9Vd2 cells occurs within minutes after the addition of the molecule. Two mechanisms may prevent the molecule to be active in vivo i) the likely rapid renal clearance of such a small molecule and ii) a degradation process in vivo. […] Nevertheless, the concentration of the molecule, injected by intravenous route in relatively high amount, should be maintained beyond the 20 nM EC50 for a significant time, if no additional, blood cell or organ related degradation process occurs in vivo.

[2] = test system: γδ T cell; assay: γδ T cell amplification from human PBMCs, counting γδ T cell using flow cytometry (given as in vivo EC50); assay type: cell-based; conditions: γδ T cell amplification from human PBMCs, flow cytometry count
Description: The biological activity of γδ T cell amplification from human PBMCs was assessed by counting γδ T cell using flow cytometry.
In vitro proliferation assays and in vitro TNFα release assay are performed essentially as described in Example 3.

[3] = test system: 786-0 cells lines; assay: Nod-SCID/tumor model, human PBMC stimulated in vivo with BrHPP; design: species or system Nod-SCID mice
Description: Preliminary studies to set up the Nod-SCID/tumor and to stimulate human MNC with BrHPP in the Nod-SCID were carried out as follows: • The following renal tumor cells lines purchased from the ATCC (786-0, Kaci1, G401 and G402) were used for the establishment of the model. 786-0 and Kaci-1 cells lines were renal clear cell carcinoma (RCC), G401 rhabdoid and G402 leimyeloblastoma.
8-12 weeks Nod-SCID mice were used as recipient of the cells lines.
Each mouse received, at the left flank's upper part, 2-5×10^6 cells by subcutaneous injection at day D0. The appearance and the growing of the tumors evolution were checked weekly.
The tumors appearance and development depend on the cell line and on the number of engrafted cells. For example, after the engraftment of 2×10^6 cells, 3 to 4 weeks were needed for the 786-O and Kac1-1, while 2 weeks were needed for the G401 and 402. • At day 0, mice were injected IP 50*10^6 PBMC (collected from healthy donor, etablissement français du sang), then stimulated (IP) 40 mg/kg BrHPP mixed with 1000 IU of IL2. At D5 and each every three days, mice were treated with 500 UI of IL2. Human γδ T cells were developed in the peritoneal cavity of Nod-SCID/human (hu) BrHPP treated mice.
Taking advantage of the tumoral development in the Nod-SCID mice and the in vivo stimulation of the human γδ T cells, the anti-tumoral effect of the γδ T cells was studied in vivo. The tumoral model was established by engrafting 2×10^6 of 786-0 cells lines, three weeks later, when the volume of the solid tumor reached more than >30 mm3 (calculated with the formula A^2×B/2 where A and B represent respectively the length and breadth of the tumor). Mice, randomized, received IP PBMC and treated for the stimulation with BrHPP. Several groups were constituted:
A—Negative control group: Mice in the group received only tumoral cell line
B—PBMC group: Mice were injected IP with 50×10^6 PBMC
C—Study group: Mice after receiving the 50×10^6 PBMC were treated with BrHPP and
For each group, parameters were observed as follows: • Weekly check of the tumor size and volume • Weekly phenotype of human T cells in the peritoneal cavity and blood collected cells for the percentage of human γδ T cells versus ab human T cells. • Serological TNF and INF check • At sacrifice: • 1—phenotype study of the homing of human leukocytes cells and their phenotype (IP, liver, lung, spleen, bone morrow, blood, thymus and tumor). • 2—Immunohistochemistry (IHC) study in the tumor of the recipient mice.

[4] = test system: Vg9Vd2 cells; assay: EC50 of BrHPP for triggering Vg9Vd2 cells; assay type: cell-based
Description: as §1

[5] = Two week repeated dose toxicity study in rats, i.v. BrHPP; assay type: in vivo, Sprague-Dawley rats
Description: The objective of this GLP study was to evaluate the potential toxicity of BrHPP following daily i.v. administration in rats for two weeks. 116 Sprague-Dawley rats were allocated into four groups: one control group (Group 1) with 10 males and 10 females and three treatment groups (Groups 2 to 4) with 10 males and 10 females. Group 2, 3 and 4 were administered respectively 80, 150 and 300 mg/kg/day (respectively 48, 90 and 180 mg/kg in anionic form equivalent) of BrHPP. […] Satellite animals were allocated for toxico-kinetics purposes.
BrHPP was administered daily by slow intravenous injection (0.4 mL/min) as a solution in sterile water for injection and Ringer lactate at the dose levels of 80, 150 or 300 mg/kg/day. The control group received the vehicle (together with 1% sodium to reach an osmolarity similar to the high-dose group dosage forms) under the same experimental conditions. A constant dosage-volume of 5 mL/kg was used.
The animals were checked daily for mortality and clinical signs. Body weight and food consumption were recorded twice a week. Opthalmologic examination was performed before and at the end of the treatment period. Blood samples for determination of levels of BrHPP were taken from satellite animals on Day 1 and at the end of the treatment period. Vaginal lavage was performed in females during pre-treatment and at the end of the treatment period for monitoring of estrous cycle. Hematological, blood biochemical and urinalysis investigations were performed on all principal animals at the end of week 2. On completion of the study, all animals were killed and subjected to a macroscopic post mortem examination and specified organs were weighed and preserved. Microscopic examination was performed on selected tissues from animals of the control and the 300 mg/kg/day groups.

## 3-(bromomethyl)-3-butanol-1-yl-diphosphate [BrHPP]
[1]
  half life of the molecule in primate sera: about one
[2]
  EC50: ~1 nM
[3]; PBMC + BrHPP + IL2
  mice in which the tumor was not totally cleared: 4 of 10
[3]; PBMC/BrHPP (40 mg/kg IP) and IL2 treated group
  tumor size: from day 7 onwards the tumor size shrank
[3]; after 12 weeks
  tumor growth where tumor not totally cleared: tumor growth was stopped and the tumor size stayed stable
[3]; at sacrifice, 4 weeks
  human γδ cells in the tumor: human γδ cells were present only in the BrHPP treated group
[3]; mice where the tumor was cleared, 12 weeks after the treatment
  reappearance of tumor: no reappearance of new tumor was observed
[3]; weekly IP phenotype
  human γδ T cell presence in the peritoneal cavity: human γδ T cell presence only in the BrHPP treated mice
[4]
  EC50: 20 nM
[5]; 300 mg/kg/day
  microscopic examination, other organs and tissues: No relevant findings were seen in other organs and tissues
[5]; 300 mg/kg/day, end of treatment
  opthalmologic findings: No relevant opthalmologic findings
[5]; 80, 150, 300 mg/kg/day i.v. two weeks
  mortality: No unscheduled death occurred
[5]; 150 and 300 mg/kg/day
  clinical signs during dosing: Vocalization during dosing was noted on many occasions
[5]; both control and BrHPP-treated, attributed to mechanical injury
  microscopic examination, tail vein: slight changes were observed in the tail vein
[5]; end of treatment
  macroscopic post-mortem examination: No relevant findings were noted
  organ weights: No relevant differences in organ weights from controls
[5]; end of week 2
  hematological, biochemical or urinary parameter: No changes of toxicological significance
[5]; females
  mean body weight gain: Dose-related higher mean body weight gain
[5]; highest tested dose
  NOAEL in anionic form equivalent: 180 mg/kg
  No Observed Adverse Effect Level (NOAEL): 300 mg/kg/day

From US20100254940A1, “Compositions and Methods for Regulating an Immune Response in a Subject” (INNATE PHARMA, S.A., priority 2002, published 2010)
